Assay results taken from the supplement of paper PMC8612539.
≈ marks a conversion by molar mass, not a printed value.

Tested on: Pasteurella multocida
Test: minimum inhibitory concentration (MIC)
Protocol: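 Broth microdilution MIC (Sensititre BOPO7F bovine plate, CLSI methods) of 19 antimicrobials against field isolates of P. multocida, M. haemolytica, H. somni (deep nasopharyngeal swabs) and E. coli, Enterococcus spp. (rectal swabs) from weaned dairy heifers. Incubation 16-24 h at 35 C. MIC is the lowest concentration preventing visible growth. Values with <= or > lie at the tested range limits. Trimethoprim-sulfamethoxazole is given as the trimethoprim component of a 1:19 mixture.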

CC[C@H]1OC(=O)C[C@@H](O)[C@H](C)[C@@H](O[C@@H]2O[C@H](C)[C@@H](O[C@H]3C[C@@](C)(O)[C@@H](O)[C@H](C)O3)[C@H](N(C)C)[C@H]2O)[C@@H](CC=O)C[C@@H](C)C(=O)/C=C/C(C)=C/[C@@H]1CO[C@@H]1O[C@H](C)[C@@H](O)[C@@H](OC)[C@H]1OC [Tylosin]
Conditions | minimum inhibitory concentration [µg/mL]
isolate (source animal id): 10 | > 32
isolate (source animal id): 11 | > 32
isolate (source animal id): 12 | > 32
isolate (source animal id): 19 | > 32
isolate (source animal id): 23 | > 32
isolate (source animal id): 26 | > 32
isolate (source animal id): 98 | > 32
isolate (source animal id): 104 | > 32
isolate (source animal id): 115 | > 32
isolate (source animal id): 117 | > 32
isolate (source animal id): 118 | > 32
isolate (source animal id): 121 | > 32
isolate (source animal id): 124 | > 32
isolate (source animal id): 125 | > 32
isolate (source animal id): 128 | > 32
isolate (source animal id): 131 | > 32
isolate (source animal id): 135 | > 32
isolate (source animal id): 136 | > 32
isolate (source animal id): 140 | > 32
isolate (source animal id): 144 | > 32
isolate (source animal id): 146 | > 32
isolate (source animal id): 150 | > 32
isolate (source animal id): 151 | > 32
isolate (source animal id): 153 | > 32
isolate (source animal id): 155 | > 32
isolate (source animal id): 157 | > 32
isolate (source animal id): 160 | > 32
isolate (source animal id): 164 | > 32
isolate (source animal id): 165 | > 32
isolate (source animal id): 167 | > 32
isolate (source animal id): 168 | > 32
isolate (source animal id): 169 | > 32
isolate (source animal id): 170 | > 32
isolate (source animal id): 171 | > 32
isolate (source animal id): 172 | > 32
isolate (source animal id): 173 | > 32
isolate (source animal id): 174 | > 32
isolate (source animal id): 175 | > 32
isolate (source animal id): 176 | > 32
isolate (source animal id): 177 | > 32
isolate (source animal id): 178 | > 32
isolate (source animal id): 179 | 32 (≈ 34.9 µM)
isolate (source animal id): 182 | > 32
isolate (source animal id): 192 | > 32
isolate (source animal id): 193 | 32 (≈ 34.9 µM)
isolate (source animal id): 195 | 32 (≈ 34.9 µM)
isolate (source animal id): 196 | > 32
isolate (source animal id): 197 | > 32
isolate (source animal id): 198 | > 32
isolate (source animal id): 199 | > 32
isolate (source animal id): 200 | > 32
isolate (source animal id): 201 | > 32
isolate (source animal id): 203 | 32 (≈ 34.9 µM)
isolate (source animal id): 204 | > 32
isolate (source animal id): 205 | > 32
isolate (source animal id): 206 | > 32
isolate (source animal id): 207 | 32 (≈ 34.9 µM)
isolate (source animal id): 208 | 32 (≈ 34.9 µM)
isolate (source animal id): 209 | 32 (≈ 34.9 µM)
isolate (source animal id): 210 | > 32
isolate (source animal id): 213 | 32 (≈ 34.9 µM)
isolate (source animal id): 216 | > 32
isolate (source animal id): 223 | > 32
isolate (source animal id): 227 | 32 (≈ 34.9 µM)
isolate (source animal id): 229 | > 32
isolate (source animal id): 233 | > 32
isolate (source animal id): 234 | > 32
isolate (source animal id): 237 | > 32
isolate (source animal id): 241 | > 32
isolate (source animal id): 245 | > 32
isolate (source animal id): 247 | > 32
isolate (source animal id): 250 | > 32
isolate (source animal id): 254 | > 32
isolate (source animal id): 255 | > 32
isolate (source animal id): 258 | 32 (≈ 34.9 µM)
isolate (source animal id): 261 | > 32
isolate (source animal id): 262 | > 32
isolate (source animal id): 269 | > 32
isolate (source animal id): 270 | > 32
isolate (source animal id): 274 | > 32
isolate (source animal id): 275 | > 32
isolate (source animal id): 276 | > 32
isolate (source animal id): 277 | > 32
isolate (source animal id): 278 | > 32
isolate (source animal id): 279 | > 32
isolate (source animal id): 280 | > 32
isolate (source animal id): 284 | > 32
isolate (source animal id): 285 | > 32
isolate (source animal id): 287 | > 32
isolate (source animal id): 290 | > 32
isolate (source animal id): 294 | > 32
isolate (source animal id): 295 | > 32
isolate (source animal id): 296 | > 32
isolate (source animal id): 307 | > 32
isolate (source animal id): 310 | > 32
isolate (source animal id): 311 | > 32
isolate (source animal id): 312 | > 32
isolate (source animal id): 313 | > 32
isolate (source animal id): 315 | > 32
isolate (source animal id): 316 | > 32

CC1(C)S[C@@H]2[C@H](NC(=O)[C@H](N)c3ccccc3)C(=O)N2[C@H]1C(=O)O [Ampicillin]
Conditions | minimum inhibitory concentration [µg/mL]
isolate (source animal id): 10 | ≤ 0.25
isolate (source animal id): 11 | ≤ 0.25
isolate (source animal id): 12 | ≤ 0.25
isolate (source animal id): 19 | ≤ 0.25
isolate (source animal id): 23 | ≤ 0.25
isolate (source animal id): 26 | ≤ 0.25
isolate (source animal id): 98 | ≤ 0.25
isolate (source animal id): 104 | ≤ 0.25
isolate (source animal id): 115 | ≤ 0.25
isolate (source animal id): 117 | ≤ 0.25
isolate (source animal id): 118 | ≤ 0.25
isolate (source animal id): 121 | ≤ 0.25
isolate (source animal id): 124 | 0.5 (≈ 1.43 µM)
isolate (source animal id): 125 | ≤ 0.25
isolate (source animal id): 128 | ≤ 0.25
isolate (source animal id): 131 | ≤ 0.25
isolate (source animal id): 135 | ≤ 0.25
isolate (source animal id): 136 | ≤ 0.25
isolate (source animal id): 140 | ≤ 0.25
isolate (source animal id): 144 | ≤ 0.25
isolate (source animal id): 146 | ≤ 0.25
isolate (source animal id): 150 | ≤ 0.25
isolate (source animal id): 151 | ≤ 0.25
isolate (source animal id): 153 | ≤ 0.25
isolate (source animal id): 155 | ≤ 0.25
isolate (source animal id): 157 | ≤ 0.25
isolate (source animal id): 160 | ≤ 0.25
isolate (source animal id): 164 | ≤ 0.25
isolate (source animal id): 165 | ≤ 0.25
isolate (source animal id): 167 | ≤ 0.25
isolate (source animal id): 168 | ≤ 0.25
isolate (source animal id): 169 | ≤ 0.25
isolate (source animal id): 170 | 8 (≈ 22.9 µM)
isolate (source animal id): 171 | ≤ 0.25
isolate (source animal id): 172 | ≤ 0.25
isolate (source animal id): 173 | ≤ 0.25
isolate (source animal id): 174 | ≤ 0.25
isolate (source animal id): 175 | ≤ 0.25
isolate (source animal id): 176 | ≤ 0.25
isolate (source animal id): 177 | ≤ 0.25
isolate (source animal id): 178 | ≤ 0.25
isolate (source animal id): 179 | ≤ 0.25
isolate (source animal id): 182 | ≤ 0.25
isolate (source animal id): 192 | ≤ 0.25
isolate (source animal id): 193 | ≤ 0.25
isolate (source animal id): 195 | ≤ 0.25
isolate (source animal id): 196 | ≤ 0.25
isolate (source animal id): 197 | ≤ 0.25
isolate (source animal id): 198 | ≤ 0.25
isolate (source animal id): 199 | ≤ 0.25
isolate (source animal id): 200 | ≤ 0.25
isolate (source animal id): 201 | ≤ 0.25
isolate (source animal id): 203 | ≤ 0.25
isolate (source animal id): 204 | ≤ 0.25
isolate (source animal id): 205 | ≤ 0.25
isolate (source animal id): 206 | ≤ 0.25
isolate (source animal id): 207 | ≤ 0.25
isolate (source animal id): 208 | ≤ 0.25
isolate (source animal id): 209 | ≤ 0.25
isolate (source animal id): 210 | ≤ 0.25
isolate (source animal id): 213 | ≤ 0.25
isolate (source animal id): 216 | ≤ 0.25
isolate (source animal id): 223 | ≤ 0.25
isolate (source animal id): 227 | ≤ 0.25
isolate (source animal id): 229 | ≤ 0.25
isolate (source animal id): 233 | ≤ 0.25
isolate (source animal id): 234 | ≤ 0.25
isolate (source animal id): 237 | ≤ 0.25
isolate (source animal id): 241 | ≤ 0.25
isolate (source animal id): 245 | ≤ 0.25
isolate (source animal id): 247 | ≤ 0.25
isolate (source animal id): 250 | ≤ 0.25
isolate (source animal id): 254 | ≤ 0.25
isolate (source animal id): 255 | ≤ 0.25
isolate (source animal id): 258 | ≤ 0.25
isolate (source animal id): 261 | ≤ 0.25
isolate (source animal id): 262 | ≤ 0.25
isolate (source animal id): 269 | ≤ 0.25
isolate (source animal id): 270 | ≤ 0.25
isolate (source animal id): 274 | ≤ 0.25
isolate (source animal id): 275 | ≤ 0.25
isolate (source animal id): 276 | ≤ 0.25
isolate (source animal id): 277 | ≤ 0.25
isolate (source animal id): 278 | ≤ 0.25
isolate (source animal id): 279 | ≤ 0.25
isolate (source animal id): 280 | ≤ 0.25
isolate (source animal id): 284 | ≤ 0.25
isolate (source animal id): 285 | ≤ 0.25
isolate (source animal id): 287 | ≤ 0.25
isolate (source animal id): 290 | ≤ 0.25
isolate (source animal id): 294 | ≤ 0.25
isolate (source animal id): 295 | ≤ 0.25
isolate (source animal id): 296 | ≤ 0.25
isolate (source animal id): 307 | ≤ 0.25
isolate (source animal id): 310 | ≤ 0.25
isolate (source animal id): 311 | ≤ 0.25
isolate (source animal id): 312 | ≤ 0.25
isolate (source animal id): 313 | ≤ 0.25
isolate (source animal id): 315 | ≤ 0.25
isolate (source animal id): 316 | ≤ 0.25
